{"source": "ChEMBL document CHEMBL1201862", "about": "“PubChem BioAssay data set” (2004)", "test_in_all_cases": "growth of human tumour cells (NCI), 48 h", "key": {"[1]": {"system": "T47D"}, "[2]": {"system": "786-0"}, "[3]": {"system": "OVCAR-4"}, "[4]": {"system": "UACC-62"}, "[5]": {"system": "SNB-19"}, "[6]": {"system": "DU-145"}, "[7]": {"system": "COLO 205"}, "[8]": {"system": "SNB-75"}, "[9]": {"system": "MDA-N"}, "[10]": {"system": "SK-MEL-5"}, "[11]": {"system": "HL-60"}, "[12]": {"system": "XF498"}, "[13]": {"system": "LXFL 529"}, "[14]": {"system": "OVCAR-5"}, "[15]": {"system": "CAKI-1"}, "[16]": {"system": "SK-OV-3"}, "[17]": {"system": "ACHN"}, "[18]": {"system": "NCI-H23"}, "[19]": {"system": "Malme-3M"}, "[20]": {"system": "SK-MEL-28"}, "[21]": {"system": "LOX IMVI"}, "[22]": {"system": "IGROV-1"}, "[23]": {"system": "SN12C"}, "[24]": {"system": "HOP-62"}, "[25]": {"system": "NCI-H226"}, "[26]": {"system": "PC-3"}, "[27]": {"system": "UACC-257"}, "[28]": {"system": "SF-295"}, "[29]": {"system": "NCI-H460"}, "[30]": {"system": "BT-549"}, "[31]": {"system": "SNB-78"}, "[32]": {"system": "RPMI-8226"}, "[33]": {"system": "K562"}, "[34]": {"system": "UO-31"}, "[35]": {"system": "TK-10"}, "[36]": {"system": "HCC 2998"}, "[37]": {"system": "RXF 393"}, "[38]": {"system": "CCRF-CEM"}, "[39]": {"system": "M19-MEL"}, "[40]": {"system": "MOLT-4"}, "[41]": {"system": "Hs-578T"}, "[42]": {"system": "MCF7"}, "[43]": {"system": "EKVX"}, "[44]": {"system": "SR"}, "[45]": {"system": "DMS-273"}, "[46]": {"system": "HCT-15"}, "[47]": {"system": "M14"}, "[48]": {"system": "OVCAR-8"}, "[49]": {"system": "OVCAR-3"}, "[50]": {"system": "KM12"}, "[51]": {"system": "HCT-116"}, "[52]": {"system": "MDA-MB-435"}, "[53]": {"system": "NCI-H522"}, "[54]": {"system": "SK-MEL-2"}, "[55]": {"system": "A549"}, "[56]": {"system": "SF-539"}, "[57]": {"system": "A498"}, "[58]": {"system": "SF-268"}, "[59]": {"system": "DMS-114"}, "[60]": {"system": "U-251"}, "[61]": {"system": "SW-620"}, "[62]": {"system": "KM-20L2"}, "[63]": {"system": "HT-29"}, "[64]": {"system": "HOP-18"}, "[65]": {"system": "DLD-1"}, "[66]": {"system": "HOP-92"}}, "note": "Counter-ions that a name gives are not always drawn.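 Values below derive from 48-hour exposures of cells grown in 96-well plates, with endpoints linearly interpolated between the two concentrations bracketing the appropriate inhibition level. GI50: concentration for 50% inhibition of growth.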 Active and inactive are the calls of the source. No stated cut-off is given here; in the data, active = GI50 up to about 1.1 µM and inactive = higher.", "data": [{"smiles": "O=C(Nc1ccc(Cl)cc1)NS(=O)(=O)c1ccc2c(c1)CCC2", "note": "[SULOFENUR]", "values": [{"measurement": "GI50", "setting": "[1]", "value": "16.4 µM (inactive)"}, {"measurement": "GI50", "setting": "[2]", "value": "35.3 µM (inactive)"}, {"measurement": "GI50", "setting": "[3]", "value": "54.8 µM (inactive)"}, {"measurement": "GI50", "setting": "[4]", "value": "23.9 µM (inactive)"}, {"measurement": "GI50", "setting": "[5]", "value": "40.9 µM (inactive)"}, {"measurement": "GI50", "setting": "[6]", "value": "24 µM (inactive)"}, {"measurement": "GI50", "setting": "[7]", "value": "29.8 µM (inactive)"}, {"measurement": "GI50", "setting": "[8]", "value": "> 55.6 µM (inactive)"}, {"measurement": "GI50", "setting": "[9]", "value": "28 µM (inactive)"}, {"measurement": "GI50", "setting": "[10]", "value": "26.9 µM (inactive)"}, {"measurement": "GI50", "setting": "[11]", "value": "2.4 µM (inactive)"}, {"measurement": "GI50", "setting": "[12]", "value": "34.1 µM (inactive)"}, {"measurement": "GI50", "setting": "[13]", "value": "31.5 µM (inactive)"}, {"measurement": "GI50", "setting": "[14]", "value": "> 43.8 µM (inactive)"}, {"measurement": "GI50", "setting": "[15]", "value": "42.9 µM (inactive)"}, {"measurement": "GI50", "setting": "[16]", "value": "25.8 µM (inactive)"}, {"measurement": "GI50", "setting": "[17]", "value": "29.4 µM (inactive)"}, {"measurement": "GI50", "setting": "[18]", "value": "28.1 µM (inactive)"}, {"measurement": "GI50", "setting": "[19]", "value": "24.5 µM (inactive)"}, {"measurement": "GI50", "setting": "[20]", "value": "43.9 µM (inactive)"}, {"measurement": "GI50", "setting": "[21]", "value": "37.6 µM (inactive)"}, {"measurement": "GI50", "setting": "[22]", "value": "12.3 µM (inactive)"}, {"measurement": "GI50", "setting": "[23]", "value": "39.2 µM (inactive)"}, {"measurement": "GI50", "setting": "[24]", "value": "32.2 µM (inactive)"}, {"measurement": "GI50", "setting": "[25]", "value": "37.9 µM (inactive)"}, {"measurement": "GI50", "setting": "[26]", "value": "19.1 µM (inactive)"}, {"measurement": "GI50", "setting": "[27]", "value": "50.7 µM (inactive)"}, {"measurement": "GI50", "setting": "[28]", "value": "46.7 µM (inactive)"}, {"measurement": "GI50", "setting": "[29]", "value": "24.4 µM (inactive)"}, {"measurement": "GI50", "setting": "[30]", "value": "32.6 µM (inactive)"}, {"measurement": "GI50", "setting": "[31]", "value": "> 47 µM (inactive)"}, {"measurement": "GI50", "setting": "[32]", "value": "24.4 µM (inactive)"}, {"measurement": "GI50", "setting": "[33]", "value": "10.2 µM (inactive)"}, {"measurement": "GI50", "setting": "[34]", "value": "25.1 µM (inactive)"}, {"measurement": "GI50", "setting": "[35]", "value": "40.5 µM (inactive)"}, {"measurement": "GI50", "setting": "[36]", "value": "31.6 µM (inactive)"}, {"measurement": "GI50", "setting": "[37]", "value": "27.9 µM (inactive)"}, {"measurement": "GI50", "setting": "[38]", "value": "29.9 µM (inactive)"}, {"measurement": "GI50", "setting": "[39]", "value": "> 68.7 µM (inactive)"}, {"measurement": "GI50", "setting": "[40]", "value": "26.4 µM (inactive)"}, {"measurement": "GI50", "setting": "[41]", "value": "209 nM (active)"}, {"measurement": "GI50", "setting": "[42]", "value": "24.1 µM (inactive)"}, {"measurement": "GI50", "setting": "[43]", "value": "36.5 µM (inactive)"}, {"measurement": "GI50", "setting": "[44]", "value": "> 57 µM (inactive)"}, {"measurement": "GI50", "setting": "[45]", "value": "32.4 µM (inactive)"}, {"measurement": "GI50", "setting": "[46]", "value": 35.6, "unit": "µM"}, {"measurement": "GI50", "setting": "[47]", "value": "37.9 µM (inactive)"}, {"measurement": "GI50", "setting": "[48]", "value": "40.8 µM (inactive)"}, {"measurement": "GI50", "setting": "[49]", "value": "24.3 µM (inactive)"}, {"measurement": "GI50", "setting": "[50]", "value": "36.1 µM (inactive)"}, {"measurement": "GI50", "setting": "[51]", "value": "26.2 µM (inactive)"}, {"measurement": "GI50", "setting": "[52]", "value": "17.6 µM (inactive)"}, {"measurement": "GI50", "setting": "[53]", "value": "27.9 µM (inactive)"}, {"measurement": "GI50", "setting": "[54]", "value": "43.8 µM (inactive)"}, {"measurement": "GI50", "setting": "[55]", "value": "32.7 µM (inactive)"}, {"measurement": "GI50", "setting": "[56]", "value": "28.3 µM (inactive)"}, {"measurement": "GI50", "setting": "[57]", "value": "45 µM (inactive)"}, {"measurement": "GI50", "setting": "[58]", "value": "49.2 µM (inactive)"}, {"measurement": "GI50", "setting": "[59]", "value": "35.2 µM (inactive)"}, {"measurement": "GI50", "setting": "[60]", "value": "30.7 µM (inactive)"}, {"measurement": "GI50", "setting": "[61]", "value": "35.3 µM (inactive)"}, {"measurement": "GI50", "setting": "[62]", "value": "37.8 µM (inactive)"}, {"measurement": "GI50", "setting": "[63]", "value": "61.1 µM (inactive)"}, {"measurement": "GI50", "setting": "[64]", "value": "42.8 µM (inactive)"}, {"measurement": "GI50", "setting": "[65]", "value": "44.4 µM (inactive)"}]}, {"smiles": "CC[C@]1(O)C[C@H]2CN(CCc3c([nH]c4ccccc34)[C@@](C(=O)OC)(c3cc4c(cc3OC)N(C=O)[C@H]3[C@@](O)(C(=O)OC)[C@H](OC(C)=O)[C@]5(CC)C=CCN6CC[C@]43[C@@H]65)C2)C1", "note": "[VINCRISTINE SULFATE]", "values": [{"measurement": "GI50", "setting": "[1]", "value": "175 µM (inactive)"}, {"measurement": "GI50", "setting": "[5]", "value": "0.131 µM (active)"}, {"measurement": "GI50", "setting": "[7]", "value": "0.133 µM (active)"}, {"measurement": "GI50", "setting": "[8]", "value": "0.43 µM (active)"}, {"measurement": "GI50", "setting": "[12]", "value": "0.135 µM (active)"}, {"measurement": "GI50", "setting": "[13]", "value": "0.1 µM (active)"}, {"measurement": "GI50", "setting": "[14]", "value": "22.2 µM (inactive)"}, {"measurement": "GI50", "setting": "[15]", "value": "0.14 µM (active)"}, {"measurement": "GI50", "setting": "[16]", "value": "0.288 µM (active)"}, {"measurement": "GI50", "setting": "[17]", "value": "0.176 µM (active)"}, {"measurement": "GI50", "setting": "[18]", "value": "0.112 µM (active)"}, {"measurement": "GI50", "setting": "[19]", "value": "0.333 µM (active)"}, {"measurement": "GI50", "setting": "[20]", "value": "1.31 µM (inactive)"}, {"measurement": "GI50", "setting": "[24]", "value": "0.225 µM (active)"}, {"measurement": "GI50", "setting": "[29]", "value": "0.105 µM (active)"}, {"measurement": "GI50", "setting": "[31]", "value": "0.163 µM (active)"}, {"measurement": "GI50", "setting": "[66]", "value": "137 nM (active)"}, {"measurement": "GI50", "setting": "[34]", "value": "2.1 µM (inactive)"}, {"measurement": "GI50", "setting": "[37]", "value": "0.161 µM (active)"}, {"measurement": "GI50", "setting": "[38]", "value": "0.131 µM (active)"}, {"measurement": "GI50", "setting": "[39]", "value": "0.142 µM (active)"}, {"measurement": "GI50", "setting": "[43]", "value": "2.36 µM (inactive)"}, {"measurement": "GI50", "setting": "[44]", "value": "0.1 µM (active)"}, {"measurement": "GI50", "setting": "[45]", "value": "0.1 µM (active)"}, {"measurement": "GI50", "setting": "[46]", "value": 0.137, "unit": "µM"}, {"measurement": "GI50", "setting": "[49]", "value": "0.125 µM (active)"}, {"measurement": "GI50", "setting": "[51]", "value": "0.132 µM (active)"}, {"measurement": "GI50", "setting": "[53]", "value": "0.119 µM (active)"}, {"measurement": "GI50", "setting": "[54]", "value": "0.132 µM (active)"}, {"measurement": "GI50", "setting": "[57]", "value": "0.126 µM (active)"}, {"measurement": "GI50", "setting": "[58]", "value": "0.172 µM (active)"}, {"measurement": "GI50", "setting": "[59]", "value": "0.121 µM (active)"}, {"measurement": "GI50", "setting": "[60]", "value": "0.132 µM (active)"}, {"measurement": "GI50", "setting": "[62]", "value": "0.106 µM (active)"}, {"measurement": "GI50", "setting": "[64]", "value": "20.8 µM (inactive)"}, {"measurement": "GI50", "setting": "[65]", "value": "0.106 µM (active)"}]}]}
